# Measured values taken from patent US5688807A, “Method for treating 5HT2B receptor related conditions” (Eli Lilly and Company, priority 1995, dated 1997).
# Counter-ions that a name gives are not always drawn. Like-named read-outs stand apart in the source and are kept apart here.
# How the values were obtained:
# rat 5-HT2B receptor = rat 5-HT2B receptor (Rattus norvegicus, UniProt P30994); assay: biochemical; format: binding;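 note: displacement of [3H]5-HT from membranes of suspension cells carrying cloned rat 5-HT2B receptor, incubated 15 min at 37 °C or 2 h at 0 °C, filter-bound radioactivity counted by scintillation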
# [1] = target: 5-HT2B receptor (rat stomach fundus) (Rattus norvegicus, UniProt P30994);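 note: isometric contraction of isolated male Wistar rat stomach fundus strips, serotonin concentration-response curves after antagonist incubation, KB from dose ratio of agonist potency versus control curve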
# [2] = Ki Rat 5-HT2B, [3H]Serotonin; 5-HT2B cells; AVG
# [3] = [3H]Serotonin; 5-HT2B cells; AVG; read-out: Ki Rat 5-HT2B
# [4] = rat stomach fundus, vs serotonin, ± standard error, read-out: 5-HT2B (Fundus) -log KB (converted)
# Sequence of rat 5-HT2B receptor (P30994 whole entry): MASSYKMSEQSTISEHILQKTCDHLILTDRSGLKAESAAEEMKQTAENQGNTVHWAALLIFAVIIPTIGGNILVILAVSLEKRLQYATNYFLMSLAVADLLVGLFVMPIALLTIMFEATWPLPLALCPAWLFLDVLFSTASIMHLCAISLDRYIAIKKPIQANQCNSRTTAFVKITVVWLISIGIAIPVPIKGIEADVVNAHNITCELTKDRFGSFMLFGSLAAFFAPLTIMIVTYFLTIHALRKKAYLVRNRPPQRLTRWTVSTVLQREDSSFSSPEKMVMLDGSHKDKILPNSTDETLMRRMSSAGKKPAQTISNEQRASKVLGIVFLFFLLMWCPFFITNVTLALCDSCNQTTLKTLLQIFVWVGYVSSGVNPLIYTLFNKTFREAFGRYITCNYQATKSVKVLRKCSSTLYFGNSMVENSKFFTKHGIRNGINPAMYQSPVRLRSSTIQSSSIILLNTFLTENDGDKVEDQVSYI
# Sequence of 5-HT2B receptor (rat stomach fundus) (P30994 whole entry): as above
compound,measurement,setting,value
CCC(CO)NC(=O)C1C=C2c3cccc4c3c(cn4C)CC2N(C)C1 (stereo not shown),Ki,rat 5-HT2B receptor; [2],6.28 nM
CC(O)C(C)OC(=O)C1CC2c3cccc4[nH]cc(c34)CC2N(C)C1 (stereo not shown),Ki,rat 5-HT2B receptor; [3],12.2 nM
CC(O)C(C)OC(=O)C1CC2c3cccc4c3c(cn4C(C)C)CC2N(C)C1 (stereo not shown),Ki,rat 5-HT2B receptor; [3],6.87 nM
CN1CC(C(=O)NCCc2ccccn2)CC2c3cccc4c3c(cn4C)CC21 (stereo not shown),Ki,rat 5-HT2B receptor; [2],24.5 nM
CN1CC(C(=O)NCc2cccnc2)CC2c3cccc4[nH]cc(c34)CC21 (stereo not shown),Ki,rat 5-HT2B receptor; [2],35.1 nM
CN1CC(C(=O)NCc2cccnc2)CC2c3cccc4c3c(cn4C)CC21 (stereo not shown),Ki,rat 5-HT2B receptor; [2],15.5 nM
CCCN(CCC)C1CCc2cccc(O)c2C1 (stereo not shown),Ki,rat 5-HT2B receptor; [3],4120 nM
CCCCC(=O)c1cccc2c1CC(NC)CC2 (stereo not shown),Ki,rat 5-HT2B receptor; [3],5150 nM
CN(C)C1CCc2cccc(C(=O)c3ccccc3F)c2C1 (stereo not shown),Ki,rat 5-HT2B receptor; [3],3020 nM
CCCC(=O)c1cccc2c1CC(NC)CC2 (stereo not shown),Ki,rat 5-HT2B receptor; [3],1500 nM
CCCC(=O)c1cccc2c1CC(N(C)C)CC2 (stereo not shown),Ki,rat 5-HT2B receptor; [3],862 nM
CCCCC(=O)c1cccc2c1CC(N(C)C)CC2 (stereo not shown),Ki,rat 5-HT2B receptor; [3],936 nM
CN(C)C1CCc2cccc(C(=O)c3ccccc3)c2C1 (stereo not shown),Ki,rat 5-HT2B receptor; [3],1750 nM
Cc1cc(Br)c2[nH]cc(CCN)c2c1,Ki,rat 5-HT2B receptor; [2],37.6 nM
NCCc1c[nH]c2c(Br)cccc12,Ki,rat 5-HT2B receptor; [2],32 nM
Cc1[nH]c2ccc(O)cc2c1CCN,Ki,rat 5-HT2B receptor; [3],284 nM
CCCNCCc1c[nH]c2ccc(Br)cc12,Ki,rat 5-HT2B receptor; [2],131 nM
CCCN(CCC)CCc1c[nH]c2ccc(OC)cc12,Ki,rat 5-HT2B receptor; [2],169 nM
NCc1c[nH]c2ccc(Br)cc12,Ki,rat 5-HT2B receptor; read-out: Ki Rat 5-HT2B; [3H]Serotonin; 5-HT2B cells; AVG,39.3 nM
NCCc1c[nH]c2ccccc12,Ki,rat 5-HT2B receptor; [3],113 nM
CC(C)n1cc(CCN)c2cc(Br)ccc21,Ki,rat 5-HT2B receptor; [3],475 nM
CCCN(CCC)CCc1c[nH]c2ccc(O)cc12,Ki,rat 5-HT2B receptor; [2],61 nM
Cc1ccc2[nH]cc(CCN)c2c1,Ki,rat 5-HT2B receptor; [3],32.8 nM
NCCc1c[nH]c2ccc(F)cc12,Ki,rat 5-HT2B receptor; [3],5.65 nM
NCCc1c[nH]c2ccc(Cl)cc12,Ki,rat 5-HT2B receptor; [3],6.21 nM
NCCc1c[nH]c2cc(F)ccc12,Ki,rat 5-HT2B receptor; [2],40.6 nM
NCCc1c[nH]c2c(F)cc(F)cc12,Ki,rat 5-HT2B receptor; [2],15.4 nM
NCCc1c[nH]c2ccc(OCc3ccccc3)cc12,Ki,rat 5-HT2B receptor; [2],30.2 nM
CCN(C)CCc1c[nH]c2ccc(OCc3ccccc3)cc12,Ki,rat 5-HT2B receptor; [2],84.5 nM
CN(C)CCc1c[nH]c2ccc(OCc3ccccc3)cc12,Ki,rat 5-HT2B receptor; [2],38.5 nM
COC(=O)c1ccc2[nH]cc(CCN)c2c1,Ki,rat 5-HT2B receptor; [2],49.3 nM
CC(N)Cc1c[nH]c2ccc(F)cc12 (stereo not shown),Ki,rat 5-HT2B receptor; [2],6.52 nM
CC(N)Cc1c[nH]c2cc(F)ccc12 (stereo not shown),Ki,rat 5-HT2B receptor; [2],49.9 nM
NCCc1c[nH]c2cc(O)c(O)cc12,Ki,rat 5-HT2B receptor; [2],41.6 nM
NCCc1c[nH]c2c(O)cc(O)cc12,Ki,rat 5-HT2B receptor; [2],4570 nM
NCCc1c[nH]c2c1ccc1ccccc12,Ki,rat 5-HT2B receptor; [3],155 nM
Cc1c(Br)ccc2c(CCN)c[nH]c12,Ki,rat 5-HT2B receptor; [2],20.8 nM
NCCc1c[nH]c2c(F)cccc12,Ki,rat 5-HT2B receptor; [2],62.4 nM
Cc1ccc2c(CCN)c[nH]c2c1,Ki,rat 5-HT2B receptor; [2],102 nM
NCCc1c[nH]c2c(F)ccc(F)c12,Ki,rat 5-HT2B receptor; [2],337 nM
COc1ccc2cccc(N3CCNCC3)c2c1,Ki,rat 5-HT2B receptor; [2],3.58 nM
CCCc1ccc2[nH]c3c(c2c1)CCNC3Cc1ccc(OC)c(OC)c1 (stereo not shown),Ki,rat 5-HT2B receptor; [3],28.4 nM
CC(C)c1ccc2[nH]c3c(c2c1)CCNC3C(C)c1cccc2ccccc12 (stereo not shown),Ki,rat 5-HT2B receptor; [3],14.2 nM
CC(C)(C)c1ccc2[nH]c3c(c2c1)CCNC3Cc1cccc2ccccc12 (stereo not shown),Ki,rat 5-HT2B receptor; [3],44.9 nM
COc1ccc(CC2NCCc3c2[nH]c2ccc(-c4ccccc4)cc32)cc1OC (stereo not shown),Ki,rat 5-HT2B receptor; [3],229 nM
Cc1ccc2[nH]c3c(c2c1F)CCNC3Cc1cccc2ccccc12 (stereo not shown),Ki,rat 5-HT2B receptor; [3],4.38 nM
COc1ccc(C(C)(C)C2NCCc3c2[nH]c2ccccc32)cc1OC (stereo not shown),Ki,rat 5-HT2B receptor; [3],220 nM
c1ccc2c3c([nH]c2c1)CNCC3,Ki,rat 5-HT2B receptor; [2],379 nM
COc1ccc2[nH]c3c(c2c1)CCNC3,Ki,rat 5-HT2B receptor; [2],405 nM
Cc1c(Br)ccc2c3c([nH]c12)CNCC3,Ki,rat 5-HT2B receptor; [3],32.4 nM
Fc1ccc2[nH]c3c(c2c1)CCNC3,Ki,rat 5-HT2B receptor; [3],322 nM
Fc1cccc2c3c([nH]c12)CNCC3,Ki,rat 5-HT2B receptor; [2],25.6 nM
Cc1ccc2c3c([nH]c2c1)CNCC3,Ki,rat 5-HT2B receptor; [3],78.5 nM
Cc1cccc2c3c([nH]c12)CNCC3,Ki,rat 5-HT2B receptor; [3],60.1 nM
COc1ccc(CC2NCCc3c2[nH]c2c(Br)c(C)ccc32)c(OC)c1OC (stereo not shown),Ki,rat 5-HT2B receptor; [3],8.77 nM
c1ccc(COc2cccc3c4c([nH]c23)CNCC4)cc1,Ki,rat 5-HT2B receptor; [3],5650 nM
COc1ccc(C(C)C2NCCc3c2[nH]c2ccc(C)cc32)cc1OC (racemic) [Example 40],Kb,[1]; [4],0.178 nM
"CCc1ccc2[nH]c3c(c2c1)CCNC3C(C)c1ccc(OC)c(OC)c1 (racemic) [Example 42, (±) 6-ethyl-1-[(3,4-dimethoxyphenyl)-1-ethyl]-1,2,3,4-tetrahydro-9H-pyrido[3,4-b]indole (Z)-2-butenedioate]",Kb,[1]; [4],0.275 nM
"CCC(c1ccc(OC)c(OC)c1)C1NCCc2c1[nH]c1ccc(C)cc21 (racemic) [Example 43, (±) 6-methyl-1-[(3,4-dimethoxyphenyl)-1-propyl]-1,2,3,4-tetrahydro-9H-pyrido[3,4-b]indole (Z)-2-butenedioate]",Kb,[1]; [4],0.363 nM
"CC(C)c1ccc2[nH]c3c(c2c1)CCNC3C(C)c1cccc2ccccc12 (racemic) [Example 50, hydrochloride]",Kb,[1]; [4],3.98 nM
"Brc1cccc2c3c([nH]c12)C(Cc1cccc2ccccc12)NCC3 (racemic) [Example 52, (±) 8-bromo-1-(1-naphthalenylmethyl)-1,2,3,4-tetrahydro-9H-pyrido [3,4-b]indole hydrochloride]",Kb,[1]; [4],~0.794 nM
"Brc1ccc2[nH]c3c(c2c1)CCNC3Cc1cccc2ccccc12 (racemic) [Example 55, (±) 6-bromo-1-(1-naphthalenylmethyl)-1,2,3,4-tetrahydro-9H-pyrido [3,4-b]indole (Z)-2-butenedioate]",Kb,[1]; [4],1.12 nM
"Cc1ccc2c3c([nH]c2c1Br)C(Cc1cccc2ccccc12)NCC3 (racemic) [Example 56, (±) 7-methyl-8-bromo-1-(1-naphthalenylmethyl)-1,2,3,4-tetrahydro-9H-pyrido [3,4-b]indole hydrochloride]",Kb,[1]; [4],~29.5 nM
"c1ccc2c(CC3NCCc4c3[nH]c3ccc(C5CCCCC5)cc43)cccc2c1 (racemic) [Example 57, (+/-) 6-cyclohexyl-1-(1-naphthalenylmethyl)-1,2,3,4-tetrahydro-9H-pyrido [3,4-b] indole hydrochloride]",Kb,[1]; [4],> 10 nM
"Cc1ccc2[nH]c3c(c2c1)CCN(C)C3Cc1cccc2ccccc12 (racemic) [Example 58, (+/-) 2,6-dimethyl-1-(1-naphthalenylmethyl)-1,2,3,4-tetrahydro-9H-pyrido [3,4-b] indole hydrochloride]",Kb,[1]; [4],> 30.2 nM
"Cc1ccc2[nH]c3c(c2c1F)CCNC3Cc1cccc2ccccc12 (racemic) [Example 59, (+/-) 5-fluoro-6-methyl-1-(1-naphthalenylmethyl)-1,2,3,4-tetrahydro-9H-pyrido [3,4-b] indole (Z)-2-butenedioate]",Kb,[1]; [4],0.204 nM
"c1ccc2c(CC3NCCc4c3[nH]c3c4ccc4ccccc43)cccc2c1 (racemic) [Example 60, (+/-) 7,8,9,10-tetrahydro-10-(1-naphthalenylmethyl)-11H-benzo [g] pyrido [3,4-b] indole (Z)-2-butenedioate]",Kb,[1]; [4],1.2 nM
"CC(C)(C)c1ccc2[nH]c3c(c2c1)CCNC3Cc1cccc2ccccc12 (racemic) [Example 61, (+/-) 6-(1,1-dimethylethyl)-1,2,3,4-tetrahydro-1-(1-naphthalenylmethyl)-9H-pyrido [3,4b] indole (Z)-2-butenedioate]",Kb,[1]; [4],3.63 nM
"CC(C)c1ccc2[nH]c3c(c2c1)CCNC3Cc1cccc2ccccc12 (racemic) [Example 62, (+/-) 6-(1-methylethyl)-1,2,3,4-tetrahydro-1-(1-naphthalenylmethyl)-9H-pyrido [3,4b] indole (Z)-2-butenedioate]",Kb,[1]; [4],2.63 nM
"Cc1ccc2c(c1)c1c(n2C)C(Cc2cccc3ccccc23)NCC1 (racemic) [Example 63, (+/-) 6,9-dimethyl-1,2,3,4-tetrahydro-1-(1-naphthalenylmethyl)-9H-pyrido [3,4-b] indole hydrochloride]",Kb,[1]; [4],0.813 nM
"COc1ccc(CC2NCCc3c2[nH]c2c(C)cccc32)cc1OC (stereo not shown) [Example 1, 8-methyl-1-[(3,4-dimethoxyphenyl)methyl]-1,2,3,4-tetrahydro-9H-pyrido[3,4-b]indole]",Kb,[1]; [4],1 nM
"COc1ccc(CC2NCCc3c2[nH]c2c(Br)cc(Br)cc32)cc1OC (stereo not shown) [Example 3, 6,8-dibromo-1-[(3,4-dimethoxyphenyl)methyl]-1,2,3,4-tetrahydro-9H-pyrido[3,4-b]indole]",Kb,[1]; [4],1.66 nM
"COc1ccc(CC2NCCc3c2[nH]c2c(Br)cc(C)cc32)cc1OC (stereo not shown) [Example 4, 6-methyl-8-bromo-1-[(3,4-dimethoxyphenyl)-methyl]-1,2,3,4-tetrahydro-9H-pyrido[3,4-b]indole hydrochloride]",Kb,[1]; [4],1.2 nM
"COc1ccc(CC2NCCc3c2[nH]c2c(F)cc(F)cc32)cc1OC (stereo not shown) [Example 6, 6,8-difluoro-1-[(3,4-dimethoxyphenyl)-methyl]-1,2,3,4-tetrahydro-9H-pyrido[3,4-b]indole]",Kb,[1]; [4],0.251 nM
"COc1ccc(CC2NCCc3c2[nH]c2c(Br)c(C)ccc32)cc1OC (stereo not shown) [Example 7, 7-methyl-8-bromo-1-[(3,4-dimethoxyphenyl)-methyl]-1,2,3,4-tetrahydro-9H-pyrido[3,4-b]indole hydrochloride]",Kb,[1],0.955 nM
"COc1ccc(CC2NCCc3c2[nH]c2ccc(C(C)(C)C)cc32)cc1OC (stereo not shown) [Example 8, 6-(1,1-dimethylethyl)-1-[(3,4-dimethoxyphenyl)methyl]1,2,3,4-tetrahydro-1-9H-pyrido-[3,4b]indole hydrochloride]",Kb,[1]; [4],3.55 nM
"COc1ccc(CC2NCCc3c2[nH]c2ccc(C)c(F)c32)cc1OC (stereo not shown) [Example 9, 5-fluoro-6-methyl-1-[(3,4-dimethoxyphenyl)-methyl]-1,2,3,4-tetrahydro-9H-pyrido[3,4-b]indole]",Kb,[1]; [4],0.501 nM
COc1ccc(CC2NCCc3c2[nH]c2ccc(C(C)(C)C)cc32)cc1OC (stereo not shown) [drawing 148],Ki,rat 5-HT2B receptor; [3],39.7 nM
COc1ccc(CC2NCCc3c2[nH]c2ccc(C4CCCCC4)cc32)cc1OC (stereo not shown) [drawing 149],Ki,rat 5-HT2B receptor; [3],1460 nM
COc1cc(CC2NCCc3c2[nH]c2ccc(C)cc32)cc(I)c1OC (stereo not shown) [drawing 153],Ki,rat 5-HT2B receptor; [3],4.82 nM
Clc1ccc2[nH]c3c(c2c1)CCNC3 [drawing 166],Ki,rat 5-HT2B receptor; [2],70.7 nM
Brc1ccc2[nH]c3c(c2c1)CCNC3 [drawing 170],Ki,rat 5-HT2B receptor; [2],62.1 nM
